Structures can show the parent of a compound that is named as a salt. Where two headings read alike, the source gives them in different places.
What was measured:
[1] = Concentration at the ulcer assuming the troche dissolves in 0.1 ml of saliva; conditions: assuming troche dissolved in 0.1 ml saliva
Experimental: Application of the penicillin/magnesium stearate troches in the aforementioned manner created a supratherapeutic concentration of penicillin on the raw surface of the aphthous ulcer. Assuming that the troche is dissolved in 0.1 ml of saliva locally at the ulcer, the initial concentration of penicillin would reach up to 500 mg/ml, and that of magnesium stearate 10 mg/ml. Under the influence of this extraordinarily high concentration of penicillin G or penicillin V, most microorganisms of the normal flora cannot survive or continue to multiply, permitting tissue regeneration processes to occur under the protective barrier coating formed by the magnesium stearate.
When the oxytetracycline hydrochloride/magnesium stearate troches are applied in the manner described in Example 1, extraordinarily high concentrations of antibiotic were released on the raw surface of the treated ulcers. Assuming that the troche is dissolved in 0.1 ml of saliva, the peak concentration of oxytetracycline would be between about 400-800 mg/ml locally at the site of the ulcer, and that of magnesium stearate 10 mg/ml.

aphthous ulcers = conditions: background, cited from earlier work; for efficacy of prior treatment: aphthous ulcers/stomatitis
[2] = Local peak and one-hour trough antibiotic concentration in loculated saliva at the site of the troche (microbiological dilution assay); type: in vivo, human; conditions: 50 mg troche; for local trough concentration of penicillin in saliva: end of one-hour duration
[3] = system: Staphylococcus aureus (ATCC 29213); assay: Minimum inhibitory concentration against the standard strain by serial two-fold dilution in nutrient broth; type: cell-based
Experimental: For determination of the peak concentration, 1 ml of the bacteria-free filtrate was further diluted with 9 ml of nutrient broth to achieve a 1:10,000 dilution of the saliva. Then a serial two-fold dilution was made of this 1:10,000 diluted saliva sample with an equal volume of nutrient broth in a roll of test tubes to obtain a series of 1 ml aliquots of nutrient broth in which the saliva was diluted to 20,000, 40,000, 80,000, 160,000, 320,000, 640,000, 1,280,000 and 2,560,000 folds respectively. […] Thus the final dilutions of the saliva sample were in the range of 40,000 to 5,120,000 folds.
As control standards, a series of test tubes containing 1 ml of nutrient broth with varying concentrations of penicillin G potassium salt ranging from 0.1 units to 10 units/ml were similarly mixed with an equal volume of nutrient broth freshly inoculated with the standard tubes of Staphylococcus aureus. Both the test and control standard tubes were incubated at 37° C. for 18 hours. Among the test tubes showing no gross evidence of bacterial growth, the one containing the highest dilution of saliva and the one containing the least amount of penicillin G were considered as having the identical concentration of penicillin, i.e. the MIC of the staphylococcus aureus.

[4] = single intravenous injection of penicillin G, usually 500 mg; cited from earlier work
Gram-negative bacilli = conditions: cited from earlier work
[5] = system: Patients with aphthous ulcers; assay: Topical treatment of patients with aphthous ulcers; type: in vivo, human
Experimental: Patients with aphthous ulcers were advised to brush their teeth to rid them of food residues, and to rinse their mouths with water prior to initiating treatment.
One penicillin/magnesium stearate troche was placed in the patients' mouths directly over the ulcerated lesion. The troche was dissolved or disintegrated in a minimum amount of saliva directly over the ulcer in no more than 15 minutes, preferably in about 8 to about 12 minutes. The patients were advised to keep the ingredients of the disintegrated troche at the site of the lesion as long as possible. Food and beverages were avoided for one hour after each treatment. If multiple aphthous ulcers were present, one troche was required for the treatment of each ulcer. The topical treatments were conducted 4 times daily, for example, after breakfast, after lunch, after dinner and before bed time for no more than 4 days. […] The burning sensation lessened with subsequent applications.
For instance, the first sign of healing is usually the fading of the hyperemic zone at the periphery of the ulcer and the lessening of edema at the base of the ulcer. The membrane covering the ulcer becomes thinner, more translucent, more pearly white instead of a grayish-yellowish white prior to the application and contract with the troche. […]

[6] = system: Staphylococcus aureus (ATCC 29213); conditions: ATCC 29213, known range; cited from earlier work

With CCCCCCCCCCCCCCCCCC(=O)O [magnesium stearate] the “concentration of magnesium stearate at the ulcer” value [1] was 10000 µg/mL.
In the case of “aluminum subsalt of sucrose-8-sulfate [sucralfate]”, the “efficacy of prior treatment” value (aphthous ulcers) is listed as “responded”.
With CN(C)[C@@H]1C(=O)C(C(N)=O)=C(O)[C@@]2(O)C(=O)C3=C(O)c4c(O)cccc4[C@@](C)(O)[C@H]3[C@H](O)[C@@H]12 [oxytetracycline hydrochloride, Oxytetracycline hydrochloride] the “one-hour trough concentration of oxytetracycline hydrochloride in saliva” value ([2]; two subjects, 60 min) was 8 mg/mL, the Cmax ([2]; human, in vivo, topical or ocular, 50 mg, two subjects, read-out: initial peak concentration of oxytetracycline hydrochloride in saliva) was 400000 µg/mL and the concentration at 1 h ([2]; human, in vivo, topical or ocular, two subjects, read-out: one-hour trough concentration of oxytetracycline hydrochloride in saliva) was 8000 µg/mL. For the same molecule, the “initial/peak concentration of antibiotic at the ulcer” value [1] was 400 to 800 mg/mL and the MIC ([3]; Staphylococcus aureus, ATCC29213, ATCC 29213, read-out: sensitivity to oxytetracycline hydrochloride, MIC) was 1 µg/mL.
For CC1(C)S[C@@H]2[C@H](NC(=O)Cc3ccccc3)C(=O)N2[C@H]1C(=O)O [penicillin G], the “local trough concentration of penicillin in saliva” value [2] was 4,000-64,000 units/ml, the “local trough concentration of penicillin in saliva” value ([2]; 60 min) was 2.5 to 40 mg/mL and the Cmax ([2]; human, in vivo, topical or ocular, at complete dissolution, read-out: initial peak local concentration of penicillin G in saliva) was 500000 µg/mL. The “MIC of penicillin G for the standard strain of Staphylococcus aureus” value ([3]; three experiments, 37° C., 18 hours) was 1 unit/ml, the “average peak blood level” value [4] was “about 26 units/ml” and the “susceptibility of many Gram-negative bacilli (Salmonella, Shigella, most Escherichia coli, all Proteus mirabilis, most Bacteroides strains)” value (Gram-negative bacilli; 740 mcg/ml as cut-off MIC) was “sensitive”. For the same molecule, the “susceptibility of Gram-negative bacilli” value (Gram-negative bacilli; at 16 mcg/ml) was “resistant”.
In the case of CC1(C)S[C@@H]2[C@H](NC(=O)Cc3ccccc3)C(=O)N2[C@H]1C(=O)O [penicillin], the “adverse reactions of stomatitis or discoloration of the tongue” value ([5]; 4 days of penicillin medication) is listed as “no observed adverse reactions”, the “status of ulcer after 4 days of medication” value ([5]; after 4 days) is listed as “only remnants of a thin pearly whitish membrane remain, if any, covering an incompletely re-epithelialized newly healed ulcer” and the “efficacy of prior treatment” value (aphthous ulcers) is listed as “ineffective”. For the same molecule, the “adverse reactions of prior treatment” value (aphthous ulcers) was “likely to produce hypersensitivity” and the “known minimum inhibitory concentration (MIC) of the standard strain” value [6] was 0.25-2 units of penicillin/ml.
For O=S(=O)([O-])[O-].[Zn+2] [zinc sulfate], the “efficacy of prior treatment” value (aphthous ulcers) is given as “responded”.
In the case of O=C1CCC(N2C(=O)c3ccccc3C2=O)C(=O)N1 (stereo not shown) [Thalidomide], the “efficacy of prior treatment” value (aphthous ulcers) is listed as “effective in some HIV-infected patients” and the “adverse reactions of prior treatment” value (aphthous ulcers) is listed as “teratogenic”.

From US5981499A, “Lesion-directed antibiotics in dry dosage forms for the treatment of shallow ulcers of the oral mucosa” (Atlantic Biomed Corporation, priority 1998, dated 1999)
